Experimental data: US20180353445A1, “METHODS AND COMPOSITIONS RELATING TO PROTEASOME INHIBITOR RESISTANCE” (Whitehead Institute for Biomedical Research, priority 2017, published 2018)

Tests used:
[1] = tested on: HepG2 cells; experiment: Cell viability assay (resazurin), HepG2 cells with shRNA knockdown of proteasome subunits vs control; type: cell-based, human
Description: FIGS. 2A-2F: Reducing expression of 19S subunits increases the levels of active 20S proteasomes and protects cancer cells from proteasome (FIG. 2A) HepG2 cells were infected with 80 shRNAs targeting 20 different subunits of the proteasome and 10 control shRNAs. Infected cells were then exposed to […] bortezomib and cell number was examined 4 days later. The plot represents the average (+/−SEM) of four different hairpins targeting the indicated proteasome subunits and their relative cell number following bortezomib treatment. 19S subunits are depicted with orange bars, the control with a blue bar and 20S subunits with green bars. […] (FIG. 2C) The relative cell number of cells harboring a control shLacZ or each of 4 individual shRNAs targeting shPSMD2 was analyzed 4 days after addition of the indicated concentrations of bortezomib. (FIG. 2D) HepG2 cells stably expressing four different shRNAs targeting the PSMD2 subunit and a control shRNA (lacZ) were analyzed by western blot for the indicated proteins 24 hours with or without bortezomib treatment. […] Proteasome complex levels were detected by immunoblot analysis and 20S proteasome activity by measuring the hydrolysis of Suc-LLVY-AMC by substrate overlay assays. * p<0.05 **p<0.01. […]

[2] = target: T1, FDX2 (Homo sapiens, UniProt Q6P4F2); experiment: In vitro Fe-S cluster assembly assay with reduced FDX2; type: biochemical; settings: reduced FDX2 substituted for reduced FDX1
T1 construct: made in house
T1 sequence (Q6P4F2 53-183): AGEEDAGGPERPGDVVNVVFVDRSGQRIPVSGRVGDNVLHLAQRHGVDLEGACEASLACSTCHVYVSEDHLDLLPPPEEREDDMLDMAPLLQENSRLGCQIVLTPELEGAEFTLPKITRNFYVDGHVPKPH
Description: Fe—S clusters are generated from sulfur extracted from cysteine by the iron sulfur-cluster (ISC) core complex (NFS1-ISD11-Acp-ISCU)2 and iron. A reductant (FDX1 or FDX2) is required for Fc-S cluster biosynthesis (Lill and Muhlenhoff, 2006; Py and Barras, 2010) (FIG. 53A). To investigate the effect of elesclomol on mitochondrial Fe—S cluster biosynthesis, we utilized in vitro Fe—S cluster assembly assays. […] As further confirmation, we examined the effect of elesclomol on electron transfer from reduced FDX1 to the ISC core complex upon the addition of cysteine.
Protein Expression and Purification—Unlabeled samples of ISCU, unlabeled (NFS1-ISD11-Acp)2 (abbreviated as SDA), unlabeled and [U-^15N]-FDX1 (truncated first 61 amino acids) and unlabeled FDX2 were produced and purified as described previously (Cai et al., 2013; Cai et al., 2017a; Cai et al., 20176). FDX1 and FDX2 were reduced by adding a 10-fold excess of sodium dithionite to oxidized FDX1 or FDX2 in an anaerobic chamber (Coy Laboratory). The reduction of FDX1 or FDX2 was monitored by the color change from dark brown to light pink and by recording IN/vis spectra before and after reduction. […]
In vitro Fe—S cluster assembly assay—The in vitro Fe—S cluster assembly assays were carried out as follows. […] The growth of absorbance at 456 nm was used to monitor the assembly of [2Fe-2S] clusters.

Row | SMILES | proliferation of control cells ([1]; 12 nM, control HepG2 cells) | increase of EC50 values in cell lines with shRNA-reduced PSMD2 vs parental line ([1]; HepG2, four shRNAs targeting PSMD2, 4 days) | inhibition of in vitro Fe-S cluster assembly [2]
1 | CC(C)C[C@H](NC(=O)[C@H](Cc1ccccc1)NC(=O)c1cnccn1)B(O)O [bortezomib] | completely inhibited | three to six-fold | 
2 | CN(NC(=O)CC(=O)NN(C)C(=S)c1ccccc1)C(=S)c1ccccc1 [elesclomol] |  |  | almost complete loss of inhibition
